From US20130130991A1, “USE OF A PEPTIDE ENHANCING THE ABILITY OF RADIATION THERAPY TO KILL CANCER CELLS” (UNIVERSITE DE LAUSANNE, priority 2010, published 2013)
“Also recorded” adds a separate entry of the source.

Assays:
HaCaT cells = experiment: Clonogenic assay (CFA) after γ-irradiation, non-tumorigenic HaCaT; format: cell-based; settings: 20 μM peptide, γ radiation 0, 1, 2 or 4 Gray, colonies after two weeks
Description: (§1) After two weeks, the culture medium was removed and the plates were gently washed with water. A crystal violet solution (0.5% crystal violet in 25% methanol) was then added to stain colonies and gently washed out with water. The number of colonies was then counted.
(§2) The clonogenic formation assay (CFA) was performed using cancer cell lines (HCT116 with or without p53) (FIG. 1A-B) and non-tumorigenic HaCaT cells (FIG. 1C) that were subjected to the various doses of γ radiation (0, 1, 2, or 4, Gray), in the presence or in absence of TAT-RasGAP317-326 (20 μM). The number of colonies was determined two weeks after irradiation.

tumor cells = settings: cited from earlier work
HCT116 p53−/− tumors = experiment: Radio-sensitization in mice bearing HCT116 p53-/- xenografts; format: in vivo; settings: 1 mg/kg i.p. every day for 10 days, γ-irradiation 3 Gy 1 hour after injection, nu/nu mice
From the text: (§3) Immunodeficient mice bearing subcutaneous tumors allow easy access of the tumors to defined fractionated irradiation doses with minimal effect on surrounding tissues and without the need of anesthesia. This latter point is important because anesthesia can modify the response to radiation therapy (Denekamp, 1979) and anesthesia is generally not used in patients during radiotherapy.
(§4) HCT116 tumor cells, lacking or not p53, were grafted onto the back of female Swiss homozygous nu/nu mice leading to the development of subcutaneous tumors. Then, the immunodeficient mice bearing subcutaneous tumors were divided into four experimental groups as follows:
(§5) 1) Intraperitoneal PBS injections and no irradiation. 2) Intraperitoneal TAT-RasGAP317-326 injections (every day, 1 mg peptide per kg of mouse in 300 μl PBS) and no irradiation. 3) Intraperitoneal PBS injection and γ-irradiation (3 Gy). 4) Intraperitoneal TAT-RasGAP317-326 injections and γ-irradiation.
(§6) The treatments (i.e. peptide injections followed by irradiation) were performed every day for 10 days without interruption. γ-irradiation was performed 1 hour after the peptide injection. The size of the tumors was monitored 3 times a week. #: mice were sacrificed when the tumors reached a volume of about 800 mm^3.

HCT116p53+/+ cells = experiment: Clonogenic assay (CFA) after γ-irradiation, HCT116 p53+/+; format: cell-based; settings: 20 μM peptide, γ radiation 0-8 Gray, colonies counted after two weeks
Description: (§7) One hundred HeLa cells or 500 HCT116p53^+/+ or 500 HCT116p53^−/− cells were seeded in 8.5 cm plates and after 24 hours later treated or not with TAT or TAT-RasGAP317-326 (20 μM) prior exposure to the various doses of γ radiation (0, 1, 2, 4, 6 or 8 Gray).
as §1, §2

HCT116p53−/− cells = experiment: Clonogenic assay (CFA) after γ-irradiation, HCT116 p53-/-; format: cell-based; settings: 20 μM peptide, γ radiation 0-8 Gray, colonies counted after two weeks
Description: as §7, §1, §2

HCT116 xenografts = experiment: Radio-sensitization in mice bearing HCT116 xenografts; format: in vivo; settings: 1 mg/kg i.p. every day for 10 days, γ-irradiation 3 Gy 1 hour after injection, nu/nu mice
From the text: as §3, §4, §5, §6

tumor growth = settings: cited from earlier work

TAT-RasGAP317-326: HIV-TAT48-57 peptide conjugated to RasGAP317-326 (WMWVTNLRTD) with two glycine residues as spacer; cell permeable peptide (GRKKRRQRRRGGWMWVTNLRTD)
γ-radiation-sensitivity of non-cancer cells (number of colonies) (HaCaT cells): not in a non-cancer cell line; also recorded: no influence on the γ-radiation-sensitivity
sensitization of non-tumor cells to genotoxin-induced apoptosis (tumor cells; non-tumor cells): nor does it sensitize non-tumor cells
apoptosis of tumor cells by the peptide alone (tumor cells; peptide by itself): does not by itself modulate apoptosis of tumor cells
sensitization of tumor cells to genotoxin-induced death (tumor cells; tumor cells with genotoxin): specifically sensitizes tumor cells to genotoxin-induced death
growth of irradiated HCT116 p53−/− tumors (HCT116 p53−/− tumors): very efficiently hampered
efficacy of γ-irradiation-mediated cell killing (number of colonies) (HCT116p53+/+ cells): increases the efficacy of γ-irradiation-mediated cell killing
efficacy of γ-irradiation-mediated cell killing (number of colonies) (HCT116p53−/− cells): increases the efficacy of γ-irradiation-mediated cell killing
tumor growth / tumor volume of irradiated tumors (HCT116 xenografts): significant growth delay and reduction in tumor volume
ability of cisplatin and other genotoxins to inhibit tumor growth (tumor growth; combined with genotoxins): increases the ability of cisplatin and other genotoxins to inhibit tumor growth
dose still exerting genotoxin-sensitization on tumor growth, relative to lethal doses (tumor growth; mouse, in vivo): > 100 fold below the lethal doses
